In one test the target is T1, Human DNA polymerase η (Homo sapiens, UniProt Q9Y253).
T1 construct: His6 (C); made in house; host or cells: SF9 insect cells (baculovirus)
T1 sequence (Q9Y253 1-713): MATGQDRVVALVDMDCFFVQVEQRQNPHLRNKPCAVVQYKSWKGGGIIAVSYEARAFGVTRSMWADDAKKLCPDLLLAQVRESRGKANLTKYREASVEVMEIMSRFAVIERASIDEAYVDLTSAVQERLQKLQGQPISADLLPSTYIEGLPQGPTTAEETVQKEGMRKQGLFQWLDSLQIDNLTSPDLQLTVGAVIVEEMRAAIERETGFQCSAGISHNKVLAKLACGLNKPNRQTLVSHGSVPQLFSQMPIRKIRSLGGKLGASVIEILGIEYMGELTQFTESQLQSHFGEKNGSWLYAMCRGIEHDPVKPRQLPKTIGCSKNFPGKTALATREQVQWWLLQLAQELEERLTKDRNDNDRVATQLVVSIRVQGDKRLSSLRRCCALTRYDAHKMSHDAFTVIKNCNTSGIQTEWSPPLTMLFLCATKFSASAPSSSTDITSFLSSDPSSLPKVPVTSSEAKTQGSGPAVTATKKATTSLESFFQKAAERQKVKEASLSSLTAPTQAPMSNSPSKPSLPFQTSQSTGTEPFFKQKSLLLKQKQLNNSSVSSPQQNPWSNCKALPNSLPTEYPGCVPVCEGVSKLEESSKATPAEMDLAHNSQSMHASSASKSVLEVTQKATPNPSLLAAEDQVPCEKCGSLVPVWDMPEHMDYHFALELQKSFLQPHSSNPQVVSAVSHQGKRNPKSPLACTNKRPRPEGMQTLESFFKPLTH
The test is described as follows: DNA polymerase assay, human pol η. Type of test: biochemical. An excerpt:
(§1) Pol α was purified from calf thymus by immuno-affinity column chromatography as described by Tamai et al.. Recombinant rat pol β was purified from E. coli JMpβ5 as described by Date et al.. The human pol γ catalytic gene was cloned into pFastBac. Histidine-tagged enzyme was expressed using the BAC-TO-BAC HT Baculovirus Expression System according to the supplier's manual (LIFE TECHNOLOGIES, MD, USA) and purified using ProBoundresin (Invitrogen Japan, Tokyo, Japan). Human pols δ and ε were purified by the nuclear fractionation of human peripheral blood cancer cells (Molt-4) using the second subunit of pols δ and ε-conjugated affinity column chromatography, respectively. Recombinant human pols η and ι tagged with His6 at their C-terminal were expressed in SF9 insect cells using the baculovirus expression system, and were purified as described previously. A truncated form of pol κ (i.e., hDINB1DC) with 6 x His-tags attached at the C-terminal was overproduced using the BAC-to-BAC Baculovirus Expression System kit (GIBCO BRL, MD, USA) and purified as described previously. […]
For pols, poly(dA)/oligo(dT)12-18 (A/T = 2/1) and dTTP were used as the DNA template-primer and nucleotide (i.e., dNTP) substrate, respectively. […] Activity without the inhibitor was considered 100%, and the remaining activity at each concentration of the inhibitor was determined relative to this value. […]

Test [1] addresses T2, Bovine Deoxyribonuclease I (Bos taurus, UniProt P00639).
T2 construct: Bovine pancreas deoxyribonuclease I (DNase I) was obtained from Stratagene Cloning Systems; purchased Stratagene Cloning Systems (La Jolla, CA, USA); host or cells: bovine pancreas
The test can be described thus: Deoxyribonuclease I assay. It is filed as biochemical.
Text: as §1
The primase activity of calf pol α, the activities of T7 RNA polymerase, T4 polynucleotide kinase and bovine DNase I were measured in standard assays according to the manufacturer's specifications as described by Tamiya-Koizumi et al., Nakayama et al., Soltis et al., and Lu and Sakaguchi, respectively.

Usually IC50 stands for the concentration that inhibits the measured activity by half.

The structures appear in SMILES notation. A value given as a limit tells only on which side of the number the result lay.

T2 sequence (P00639 23-282): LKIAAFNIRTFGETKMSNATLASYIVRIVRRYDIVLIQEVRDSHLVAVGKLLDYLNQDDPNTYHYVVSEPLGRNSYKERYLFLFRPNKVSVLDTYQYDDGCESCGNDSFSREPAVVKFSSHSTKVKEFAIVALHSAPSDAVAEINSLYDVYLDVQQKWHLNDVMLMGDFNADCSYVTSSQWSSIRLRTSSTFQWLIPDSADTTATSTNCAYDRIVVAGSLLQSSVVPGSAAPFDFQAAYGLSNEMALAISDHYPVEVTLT

With `CC1=CC[C@H]2C(C)(C)CCC[C@]2(C)[C@H]1CCCCCCCCCCCCCCCCC(=O)O` (relative stereo) [compound 11, (1S*,4aS*,8aS*)-17-(1,4,4a,5,6,7,8,8a-octahydro-2,5,5,8a-tetramethylnaphthalen-1-yl)heptadecanoic acid], the 50% inhibitory concentration (IC50) against Human DNA polymerase η is 7.45 ± 0.37 µM; in test [1], above 200 µM.

The record behind these values is publication PMC6253949, “The Inhibitory Action of Kohamaic Acid A Derivatives on Mammalian DNA Polymerase β” (Molecules, 2008).
